# US20260262643A1, “HERBICIDAL BENZOXAZINES” (FMC CORPORATION, priority 2022, published 2026)
# Tests used:
# ryegrass, Italian [1] = test: Test C preemergence; assay type: in vivo, Lolium multiflorum
# Procedure, shortened: (§1)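 Seeds in loam–sand blend received preemergence directed soil spray of test chemicals in non-phytotoxic solvent with surfactant; postemergence treatment was applied at one- to two-leaf stage (2–10 cm). After 10 days in greenhouse, injury rated visually versus untreated controls, 0 (no effect) to 100 (complete control).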
# corn [2] = test: Test C preemergence; assay type: in vivo, Zea mays
# Procedure, shortened: as §1
# rice = test: Test D flooded paddy test; assay type: in vivo, Oryza sativa; conditions: 250 g ai/ha, applied to paddy water, visual rating after 13 to 14 days, scale 0 to 100 (0 no effect, 100 complete control)
# Procedure, shortened: (§2)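 Plants at the 2-leaf stage were grown in pots flooded to 3 cm, and compound was applied directly into the paddy water, with depth kept throughout. After 13–14 days in a greenhouse, injury was rated visually against untreated controls on a 0–100 scale (100 = complete control); a dash means not tested.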
# blackgrass [3] = test: Test C postemergence; assay type: in vivo, Alopecurus myosuroides; conditions: 10 days, 0 to 100 scale (0 no effect, 100 complete control)
# Procedure, shortened: as §1
# oat, wild [4] = test: Test C preemergence; assay type: in vivo, Avena fatua
# Procedure, shortened: as §1
# ducksalad = test: Test D flooded paddy test; assay type: in vivo, Heteranthera limosa; conditions: 250 g ai/ha, applied to paddy water, visual rating after 13 to 14 days, scale 0 to 100 (0 no effect, 100 complete control)
# Procedure, shortened: as §2
# galium = test: Test C postemergence; assay type: in vivo, Galium aparine; conditions: Postemergence, 125 g ai/ha; 0 to 100 scale (0 no effect, 100 complete control), 10 days
# Procedure, shortened: as §1
# green foxtail [5] = test: Test C preemergence; assay type: in vivo, Setaria viridis
# Procedure, shortened: as §1
# ragweed [6] = test: Test C preemergence; assay type: in vivo, Ambrosia artemisiifolia
# Procedure, shortened: as §1
# wheat [7] = test: Test C postemergence; assay type: in vivo, Triticum aestivum; conditions: Postemergence, 125 g ai/ha; 0 to 100 scale (0 no effect, 100 complete control), 10 days
# Procedure, shortened: as §1
# kochia [8] = test: Test C preemergence; assay type: in vivo, Bassia scoparia
# Procedure, shortened: as §1
# ragweed [9] = test: Test C postemergence; assay type: in vivo, Ambrosia artemisiifolia; conditions: Postemergence, 125 g ai/ha; 0 to 100 scale (0 no effect, 100 complete control), 10 days
# Procedure, shortened: as §1
# pigweed, palmer [10] = test: Test C postemergence; assay type: in vivo, Amaranthus palmeri; conditions: 10 days, 0 to 100 scale (0 no effect, 100 complete control)
# Procedure, shortened: as §1
# oat, wild [11] = test: Test C postemergence; assay type: in vivo, Avena fatua; conditions: 10 days, 0 to 100 scale (0 no effect, 100 complete control)
# Procedure, shortened: as §1
# ryegrass, Italian [12] = test: Test C postemergence; assay type: in vivo, Lolium multiflorum; conditions: Postemergence, 125 g ai/ha; 0 to 100 scale (0 no effect, 100 complete control), 10 days
# Procedure, shortened: as §1
# blackgrass [13] = test: Test C preemergence; assay type: in vivo, Alopecurus myosuroides
# Procedure, shortened: as §1
# barnyardgrass [14] = test: Test D flooded paddy test; assay type: in vivo, Echinochloa crus-galli; conditions: 250 g ai/ha, applied to paddy water, visual rating after 13 to 14 days, scale 0 to 100 (0 no effect, 100 complete control)
# Procedure, shortened: as §2
# soybean [15] = test: Test C preemergence; assay type: in vivo, Glycine max
# Procedure, shortened: as §1
# green foxtail [16] = test: Test C postemergence; assay type: in vivo, Setaria viridis; conditions: 10 days, 0 to 100 scale (0 no effect, 100 complete control)
# Procedure, shortened: as §1
# pigweed, palmer [17] = test: Test C preemergence; assay type: in vivo, Amaranthus palmeri
# Procedure, shortened: as §1
# sedge, umbrella = test: Test D flooded paddy test; assay type: in vivo, Cyperus difformis; conditions: 250 g ai/ha, applied to paddy water, visual rating after 13 to 14 days, scale 0 to 100 (0 no effect, 100 complete control)
# Procedure, shortened: as §2
# barnyardgrass [18] = test: Test C postemergence; assay type: in vivo, Echinochloa crusgalli; conditions: 10 days, 0 to 100 scale (0 no effect, 100 complete control)
# Procedure, shortened: as §1
# horseweed = test: Test C postemergence; assay type: in vivo, Erigeron canadensis; conditions: 10 days, 0 to 100 scale (0 no effect, 100 complete control)
# Procedure, shortened: as §1
# corn [19] = test: Test C postemergence; assay type: in vivo, Zea mays; conditions: 10 days, 0 to 100 scale (0 no effect, 100 complete control)
# Procedure, shortened: as §1
# soybean [20] = test: Test C postemergence; assay type: in vivo, Glycine max; conditions: Postemergence, 125 g ai/ha; 0 to 100 scale (0 no effect, 100 complete control), 10 days
# Procedure, shortened: as §1
# wheat [21] = test: Test C preemergence; assay type: in vivo, Triticum aestivum
# Procedure, shortened: as §1
# kochia [22] = test: Test C postemergence; assay type: in vivo, Bassia scoparia; conditions: 10 days, 0 to 100 scale (0 no effect, 100 complete control)
# Procedure, shortened: as §1
# barnyardgrass [23] = test: Test C preemergence; assay type: in vivo, Echinochloa crusgalli
# Procedure, shortened: as §1
# [24] = 500 g ai/ha, preemergence, 0 to 100 scale (0 no effect, 100 complete control)
# [25] = Preemergence, 125 g ai/ha, 0 to 100 scale, 0 no effect, 100 complete control
smiles,measurement,setting,value
COC[C@H]1CN(C(=O)c2cc(-n3cnc(C(C)(C)O)n3)ccc2OC)c2cccc(Cl)c2O1 [Compound 408],"Ryegrass, Italian plant response rating","ryegrass, Italian [1]; [24]",80
same,"Plant response rating, Ryegrass, Italian","ryegrass, Italian [1]; [25]",60
same,Corn plant response rating,corn [2]; [24],60
same,"Plant response rating, Corn",corn [2]; [25],0
same,"Plant response rating, Rice (Flood)",rice,15
same,"Plant response rating, Blackgrass","blackgrass [3]; 500 g ai/ha, postemergence",70
same,"Plant response rating, Blackgrass","blackgrass [3]; Postemergence, 125 g ai/ha",0
same,"Oat, Wild plant response rating","oat, wild [4]; [24]",60
same,"Plant response rating, Oat, Wild","oat, wild [4]; [25]",30
same,"Plant response rating, Ducksalad (Flood)",ducksalad,90
same,"Plant response rating, Galium",galium,100
same,"Foxtail, Green plant response rating",green foxtail [5]; [24],100
same,"Plant response rating, Foxtail, Green",green foxtail [5]; [25],100
same,Ragweed plant response rating,ragweed [6]; [24],90
same,"Plant response rating, Ragweed",ragweed [6]; [25],60
same,"Plant response rating, Wheat",wheat [7],30
same,Kochia plant response rating,kochia [8]; [24],100
same,"Plant response rating, Kochia",kochia [8]; [25],70
same,"Plant response rating, Ragweed",ragweed [9],50
same,"Plant response rating, Pigweed, Palmer","pigweed, palmer [10]; 500 g ai/ha, postemergence",80
same,"Plant response rating, Pigweed, Palmer","pigweed, palmer [10]; Postemergence, 125 g ai/ha",80
same,"Plant response rating, Oat, Wild","oat, wild [11]; 500 g ai/ha, postemergence",90
same,"Plant response rating, Oat, Wild","oat, wild [11]; Postemergence, 125 g ai/ha",30
same,"Plant response rating, Ryegrass, Italian","ryegrass, Italian [12]",70
same,Blackgrass plant response rating,blackgrass [13]; [24],80
same,"Plant response rating, Blackgrass",blackgrass [13]; [25],10
same,"Plant response rating, Barnyardgrass (Flood)",barnyardgrass [14],10
same,Soybean plant response rating,soybean [15]; [24],100
same,"Plant response rating, Soybean",soybean [15]; [25],80
same,"Plant response rating, Foxtail, Green","green foxtail [16]; 500 g ai/ha, postemergence",60
same,"Plant response rating, Foxtail, Green","green foxtail [16]; Postemergence, 125 g ai/ha",20
same,"Pigweed, Palmer plant response rating","pigweed, palmer [17]; [24]",100
same,"Plant response rating, Pigweed, Palmer","pigweed, palmer [17]; [25]",100
same,"Plant response rating, Sedge, Umbrella (Flood)","sedge, umbrella",98
same,"Plant response rating, Barnyardgrass","barnyardgrass [18]; 500 g ai/ha, postemergence",60
same,"Plant response rating, Barnyardgrass","barnyardgrass [18]; Postemergence, 125 g ai/ha",10
same,"Plant response rating, Horseweed","horseweed; 500 g ai/ha, postemergence",60
same,"Plant response rating, Horseweed","horseweed; Postemergence, 125 g ai/ha",0
same,"Plant response rating, Corn","corn [19]; 500 g ai/ha, postemergence",80
same,"Plant response rating, Corn","corn [19]; Postemergence, 125 g ai/ha",10
same,"Plant response rating, Soybean",soybean [20],100
same,Wheat plant response rating,wheat [21]; [24],60
same,"Plant response rating, Wheat",wheat [21]; [25],20
same,"Plant response rating, Kochia","kochia [22]; 500 g ai/ha, postemergence",90
same,"Plant response rating, Kochia","kochia [22]; Postemergence, 125 g ai/ha",70
same,Barnyardgrass plant response rating,barnyardgrass [23]; [24],100
same,"Plant response rating, Barnyardgrass",barnyardgrass [23]; [25],60
